Columns and labels:
[1] = target: Tyrosine-protein kinase Lyn (Homo sapiens) (UniProt P07948); assay: Inhibition of human LYN assessed as remaining enzyme activity at 1 uM
[2] = target: T1, Ephrin type-A receptor 8 (Homo sapiens) (UniProt P29322); assay: Inhibition of human EphA8 assessed as remaining enzyme activity at 0.1 uM
T1 sequence (whole entry): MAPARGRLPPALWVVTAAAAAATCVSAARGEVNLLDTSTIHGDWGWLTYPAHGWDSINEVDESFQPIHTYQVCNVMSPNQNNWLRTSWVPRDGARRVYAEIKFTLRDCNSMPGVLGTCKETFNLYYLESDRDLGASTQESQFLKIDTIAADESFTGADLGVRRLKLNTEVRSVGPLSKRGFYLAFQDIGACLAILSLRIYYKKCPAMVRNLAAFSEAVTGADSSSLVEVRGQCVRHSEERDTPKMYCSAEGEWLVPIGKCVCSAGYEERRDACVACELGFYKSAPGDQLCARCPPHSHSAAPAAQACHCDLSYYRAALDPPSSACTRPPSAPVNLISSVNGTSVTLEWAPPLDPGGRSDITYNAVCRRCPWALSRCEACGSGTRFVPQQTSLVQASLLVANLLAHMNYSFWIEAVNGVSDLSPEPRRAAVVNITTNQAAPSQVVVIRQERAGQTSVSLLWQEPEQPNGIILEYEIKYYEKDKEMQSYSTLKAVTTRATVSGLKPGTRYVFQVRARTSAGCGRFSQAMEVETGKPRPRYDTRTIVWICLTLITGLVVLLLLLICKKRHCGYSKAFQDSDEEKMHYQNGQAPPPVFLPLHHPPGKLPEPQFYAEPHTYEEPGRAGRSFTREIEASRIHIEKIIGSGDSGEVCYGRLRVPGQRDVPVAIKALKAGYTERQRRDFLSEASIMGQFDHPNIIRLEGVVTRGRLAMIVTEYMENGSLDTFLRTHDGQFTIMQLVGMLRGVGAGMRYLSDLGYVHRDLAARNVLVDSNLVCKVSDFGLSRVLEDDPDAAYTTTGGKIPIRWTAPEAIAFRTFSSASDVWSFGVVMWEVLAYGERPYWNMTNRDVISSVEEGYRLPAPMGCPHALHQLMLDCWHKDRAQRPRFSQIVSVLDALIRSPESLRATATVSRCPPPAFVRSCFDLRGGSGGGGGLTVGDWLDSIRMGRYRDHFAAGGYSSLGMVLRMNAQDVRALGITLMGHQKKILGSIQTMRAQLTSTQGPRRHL

[3] = target: Mitogen-activated protein kinase kinase kinase kinase 5 (Homo sapiens) (UniProt Q9Y4K4); assay: Inhibition of human MAP4K5 assessed as remaining enzyme activity at 0.01 uM
[4] = target: Tyrosine-protein kinase Lyn (Homo sapiens) (UniProt P07948); assay: Inhibition of human LYN assessed as remaining enzyme activity at 0.01 uM
[5] = target: Tyrosine-protein kinase ABL1 (Mus musculus) (UniProt P00520); assay: Inhibition of mouse Abl assessed as remaining enzyme activity at 0.01 uM
[6] = target: T1, Ephrin type-A receptor 8 (Homo sapiens); assay: Inhibition of human EphA8 assessed as remaining enzyme activity at 0.01 uM

Sequence of Tyrosine-protein kinase Lyn (Homo sapiens) (P07948 2-512 limits assumed): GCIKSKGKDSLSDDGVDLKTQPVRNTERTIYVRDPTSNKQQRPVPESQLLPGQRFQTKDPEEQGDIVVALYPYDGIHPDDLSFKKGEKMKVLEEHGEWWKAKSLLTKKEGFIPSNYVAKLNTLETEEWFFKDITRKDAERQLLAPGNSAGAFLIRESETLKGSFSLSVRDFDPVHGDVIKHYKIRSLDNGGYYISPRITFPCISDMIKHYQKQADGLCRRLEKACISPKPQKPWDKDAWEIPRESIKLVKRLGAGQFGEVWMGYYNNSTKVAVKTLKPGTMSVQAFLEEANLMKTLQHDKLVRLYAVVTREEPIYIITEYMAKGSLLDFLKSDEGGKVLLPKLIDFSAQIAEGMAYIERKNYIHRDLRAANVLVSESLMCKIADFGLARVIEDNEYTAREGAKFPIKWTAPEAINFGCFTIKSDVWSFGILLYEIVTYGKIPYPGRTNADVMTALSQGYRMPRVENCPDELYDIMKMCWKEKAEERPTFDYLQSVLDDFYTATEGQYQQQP
Sequence of Mitogen-activated protein kinase kinase kinase kinase 5 (Homo sapiens) (Q9Y4K4 whole entry, looked up): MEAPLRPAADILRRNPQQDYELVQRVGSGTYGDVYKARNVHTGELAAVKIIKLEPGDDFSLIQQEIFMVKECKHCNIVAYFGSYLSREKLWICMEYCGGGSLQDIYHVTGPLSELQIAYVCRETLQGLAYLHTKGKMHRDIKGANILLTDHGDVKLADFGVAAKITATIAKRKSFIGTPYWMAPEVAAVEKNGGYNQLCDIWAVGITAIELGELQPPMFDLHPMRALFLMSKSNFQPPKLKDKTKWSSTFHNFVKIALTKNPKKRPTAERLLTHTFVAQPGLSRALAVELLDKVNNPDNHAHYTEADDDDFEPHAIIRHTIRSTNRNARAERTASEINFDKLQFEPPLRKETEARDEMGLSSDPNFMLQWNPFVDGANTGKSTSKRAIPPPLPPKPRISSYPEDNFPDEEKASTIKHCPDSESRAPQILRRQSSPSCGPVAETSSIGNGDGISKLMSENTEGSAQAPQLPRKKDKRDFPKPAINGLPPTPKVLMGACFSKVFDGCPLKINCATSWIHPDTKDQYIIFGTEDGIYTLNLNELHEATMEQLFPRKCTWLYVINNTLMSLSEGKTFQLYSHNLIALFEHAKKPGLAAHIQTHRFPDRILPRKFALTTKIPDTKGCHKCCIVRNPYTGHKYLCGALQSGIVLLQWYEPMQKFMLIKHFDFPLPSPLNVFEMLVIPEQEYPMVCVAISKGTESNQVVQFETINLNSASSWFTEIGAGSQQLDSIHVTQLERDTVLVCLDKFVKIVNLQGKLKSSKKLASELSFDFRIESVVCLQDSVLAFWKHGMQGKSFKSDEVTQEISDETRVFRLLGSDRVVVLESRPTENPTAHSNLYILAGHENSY
Sequence of Tyrosine-protein kinase ABL1 (Mus musculus) (P00520 whole entry): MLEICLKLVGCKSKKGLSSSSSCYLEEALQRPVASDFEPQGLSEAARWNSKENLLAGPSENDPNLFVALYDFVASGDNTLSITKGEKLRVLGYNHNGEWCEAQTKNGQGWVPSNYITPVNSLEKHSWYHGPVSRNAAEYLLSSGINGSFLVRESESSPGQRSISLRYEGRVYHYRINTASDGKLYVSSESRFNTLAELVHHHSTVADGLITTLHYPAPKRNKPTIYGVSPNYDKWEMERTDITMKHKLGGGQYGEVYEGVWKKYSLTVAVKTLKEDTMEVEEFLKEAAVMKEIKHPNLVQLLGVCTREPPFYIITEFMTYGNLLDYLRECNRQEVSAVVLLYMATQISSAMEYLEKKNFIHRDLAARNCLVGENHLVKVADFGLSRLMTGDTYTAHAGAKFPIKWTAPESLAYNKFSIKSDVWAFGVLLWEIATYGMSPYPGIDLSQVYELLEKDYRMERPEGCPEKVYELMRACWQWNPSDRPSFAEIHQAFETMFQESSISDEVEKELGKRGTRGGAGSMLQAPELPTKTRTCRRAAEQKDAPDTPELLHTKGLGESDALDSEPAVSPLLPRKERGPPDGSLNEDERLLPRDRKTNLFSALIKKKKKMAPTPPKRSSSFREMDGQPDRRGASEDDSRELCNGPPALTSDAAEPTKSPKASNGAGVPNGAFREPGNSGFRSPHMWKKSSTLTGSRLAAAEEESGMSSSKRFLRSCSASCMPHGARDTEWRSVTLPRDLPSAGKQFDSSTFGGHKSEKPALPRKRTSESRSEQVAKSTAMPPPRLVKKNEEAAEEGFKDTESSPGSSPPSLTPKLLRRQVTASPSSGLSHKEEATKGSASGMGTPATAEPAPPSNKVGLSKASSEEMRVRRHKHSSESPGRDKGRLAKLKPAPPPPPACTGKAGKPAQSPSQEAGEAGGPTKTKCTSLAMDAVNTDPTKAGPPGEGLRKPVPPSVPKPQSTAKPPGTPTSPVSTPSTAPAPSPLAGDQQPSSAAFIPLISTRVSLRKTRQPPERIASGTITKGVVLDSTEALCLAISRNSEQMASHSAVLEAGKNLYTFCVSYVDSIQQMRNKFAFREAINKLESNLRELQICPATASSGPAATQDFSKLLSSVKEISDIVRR

Activity [1]: 1%
Activity [2]: 44%
Activity [3]: 104%
Activity [4]: 32%
Activity [5]: 22%
Activity [6]: 85%
SMILES: CNC(=O)c1cc(Oc2ccc(NC(=O)Nc3ccc(Cl)c(C(F)(F)F)c3)c(F)c2)ccn1

Reference: ChEMBL document CHEMBL4725218, “Deep Learning Enhancing Kinome-Wide Polypharmacology Profiling: Model Construction and Experiment Validation” (J Med Chem, 2020)
